# Test results: US20160303133A1, “TREATMENT OF GASTROINTESTINAL AND OTHER DISORDERS” (NUMEDII, INC., priority 2013, published 2016)
# Columns and labels:
# [1] = system: prophylactic TNBS rat colitis model; assay: TNBS dose escalation study, colon histopathology (Example 4); type: in vivo, Sprague-Dawley (SD) rats; parameters: key to colon necrosis: no: 0=No necrosis; very minimal: 0.5=Very minimal, focal, affects <2% of the total colon; minimal: 1.0=Minimal focal or multifocal, affects 2-10% of the total colon; mild: 2.0=Mild, focal or multifocal, affects 11-25% of the total colon; moderate: 3.0=Moderate focal or multifocal, affects 26-50% of the total colon; marked: 4.0=Marked focal or multifocal, affects 51-75% of the total colon; severe: 5.0=Severe affects >75% of the total colon
# Excerpt: Inflammation—neutrophil and macrophage infiltration predominantly, fibroplasia and neovascularization in areas of transmural necrosis 0=No inflammation 0.5=Very minimal focal infiltrates in mucosa only, affects <2% of the total colon 1.0=Minimal multifocal infiltrates in mucosa only, affects 2-10% of the total colon 2.0=Mild multifocal infiltrates affecting mucosa, submucosa, outer muscle layers and serosa, affects 11-25% of the total colon 3.0=Moderate multifocal infiltrates affecting mucosa, submucosa, outer muscle layers and serosa, affects 26-50% of the total colon 4.0=Marked multifocal to diffuse infiltrates affecting mucosa, submucosa, outer muscle layers and serosa, affects 51-75% of the total colon 5.0=Severe multifocal to diffuse infiltrates affecting mucosa, submucosa, outer muscle layers and serosa, affects >75% of the total colon. Necrosis—measure the total length of all colon sections, measure the total length of necrotic mucosa devoid of epithelium to determine % area affected 0=No necrosis 0.5=Very minimal, focal, affects <2% of the total colon 1.0=Minimal focal or multifocal, affects 2-10% of the total colon 2.0=Mild, focal or multifocal, affects 11-25% of the total colon 3.0=Moderate focal or multifocal, affects 26-50% of the total colon 4.0=Marked focal or multifocal, affects 51-75% of the total colon 5.0=Severe, affects >75% of the total colon Sprague-Dawley (SD) rats 118 (male, 180-200 g) were assigned to 11 groups of 10 or 12 rats per group so that each group has approximately the same mean weight. (Day −1) Initiate daily dosing of Groups 1-11 as in TABLE 1. Rats are deprived of food for 24 hours prior to disease initiation. 1) Intra-rectal (IR) administration is accomplished by briefly anesthetizing the rats, administering the test material at 10 ml/kg via a 20 gauge feeding needle inserted via the rectum, maintaining the rat in an inverted position with anus pinched shut until recovered from anesthesia. 2) Oral formulations are first dissolved in 0.05N acetic acid and pH adjusted to 6-7 with 0.1N NaOH. [table] (DAY 0) Prepare TNBS Solution (50% TNBS: 50% 200 proof ethanol; 16 mg/ml TNBS). Dose as in TABLE 3. After 1 hour, rats in Groups 2-11 are administered TNBS. Anesthetize rats and administer 64 mg/kg (4 ml/kg) TNBS Solution into colon of each rat, then re-feed rats. (DAY 7): Rats are weighed and dosed as in Table 3. […]. Terminal blood samples are collected from anesthetized rats. Samples are collected in pre-chilled-tubes and processed to serum. Store serum at −80° C. in several aliquots. A midline incision is made on each animal. Colon is removed and length measured and recorded. A longitudinal incision is made on each colon. Fecal material is gently washed away with saline. Excess fluid is gently blotted and colon weighed. The severity of IBD is assessed using the following scoring system: maximum score=10 • 1) Adhesions: • none=0 • minimal=1 • involving several bowel loops=2 • 2) Strictures: • none=0 • mild=1 • moderate=2 • severe, proximal dilatation=3 • 3) Ulcers: • none=0 • inear ulceration <1 cm=1 • two linear ulcers <1 cm=2 • more sites of ulceration or one large ulcer=3 • 4) Wall thickness: • less than 1 mm=0 • 1-3 mm=1 • >3 mm=2 A section of colon is preserved in 10 volumes of 10% neutral buffered formalin for histopathology. A section of colon is homogenized in PBS, centrifuged, and aliquots of the homogenate in labeled Eppendorf tubes are stored at −80° C. for cytokine analysis.
# [2] = system: TNBS (2,4,6-trinitrobenzenesulfonic acid) rat colitis model; assay: Prophylactic efficacy study in TNBS rat colitis model, colon histopathology (Example 3); type: in vivo, Sprague-Dawley rats
# Protocol: Prophylactic efficacy study in TNBS (2,4,6-trinitrobenzenesulfonic acid) rat colitis model.
# Preparation of doses: For Groups 1, 2: 50 ml 0.1M acetic acid and 30 ml sterile water were combined. The pH was adjusted from 4.45 to 6.7 with 0.1N NaOH. The stir bar was removed and the solution made up to 100 ml with sterile water. For Group 3, 133.9 mg prednisolone 21-hemisuccinate sodium salt was dissolved in 100 ml de-ionized water to prepare a 1 mg/ml solution. For Group 4, 600 mg Nadolol was dissolved in 50 ml 0.1M acetic acid and 30 ml sterile water. The pH was adjusted from 4.45 to 6.7 with 0.1N NaOH, and the solution made up to 100 ml with sterile water. For Group 5, 1.2 g Nadolol was dissolved in 50 ml 0.1M acetic acid and 30 ml sterile water. The pH was adjusted from 4.45 to 6.7 with 0.1N NaOH and the solution made up to 100 ml with sterile water. For Group 6: 1 g cellulose gum was dissolved in 50 ml 0.1N acetic acid and 30 ml de-ionized water. The volume was made up to 100 ml with sterile water. For Group 7, 600 mg Nadolol was dissolved in 50 ml 0.1M acetic acid and 30 ml sterile water. 1 g cellulose gum was added and dissolved into the solution and the solution made up to 100 ml with sterile water. For Group 8, 1.2 g Nadolol was dissolved in 50 ml 0.1M acetic acid and 30 ml sterile water. 1 g cellulose gum was added and dissolved into the solution and the solution made up to 100 ml with sterile water.
# (Day −1) 84 Sprague-Dawley rats (male, 160-180 g each) were sorted into treatment groups based upon average body weight. The rats were weighed and food-deprived. The rats in groups 1-5 were dosed orally (PO) at 10 ml/kg with their respective solutions according to Table 2. The rats in Groups 6-8 were anesthetized intra-rectally (IR) instilled with 10 ml/kg of their respective treatment according to Table 2, the anus was pinched closed and the rat held inverted until recovered from anesthesia (at least 1 min).
# After 24 hours (day 0), an aqueous solution of TNBS (2,4,6-trinitrobenzenesulfonic acid) 16 mg/ml in 50% ethanol was made and the rats were weighed and dosed as in TABLE 2. One hour later, the rats anesthetized and Groups 2-8 were intra-rectally instilled with 4 ml/kg TNBS solution (64 mg/kg), the anus was pinched closed and the rat held inverted until recovered from anesthesia (at least 1 min). Group 1 received de-ionized water. The rats were re-fed after recovery from TNBS instillation.
# The rats were weighed and dosed as in TABLE 2 each day for the next six days (day 2-7), The rats were anesthetized and exsanguinated into pre-chilled serum separator tubes, the blood processed to serum which was stored in several aliquots at −80° C. A midline incision was made in the abdomen and the colon was evaluated for adhesions and stricture. The colon was removed and the length recorded. A midline incision was made the entire length of the colon, the contents removed and the colon weight and colon wall thickness recorded. A section of the colon was preserved in 20 volumes of 10% neutral buffered formalin. The end of the colon section at the rectal end of the section was edged with Evans Blue dye for orientation purposes. Another section of the colon was weighed and homogenized on an ice batch in 5 ml PBS. The homogenate was centrifuged and aliquots stored in labeled Eppendorf tubes at −80° C. The following parameters were used to determine colonic score: • Colonic Score Parameters • a) Adhesions: • 1) none=0 • 2) minimal=1 • 3) involving several bowel loops=2 • b) Strictures: • 1) none=0 • 2) mild=1 • 3) moderate=2 • 4) severe, proximal dilatation=3 • c) Ulcers: • 1) none=0 • 2) linear ulceration <1 cm=1 • 3) two linear ulcers <1 cm=2 • 4) more sites of ulceration or one large ulcer=3 • d) Wall thickness: • 1) less than 1 mm=0 • 2) 1-3 mm=1 • 3) >3 mm=2
# The formalin-preserved colon samples were submitted for histological preparation and evaluation. […]
# [3] = 60 mpk, FIG. 5c (route not given, IR by group order of Table 2)
# [4] = 60 mpk, FIG. 4d (route not given, PO by group order of Table 2)
# [5] = 120 mpk, FIG. 5a (route not given, PO by group order of Table 2)
# [6] = 120 mpk, FIG. 5d (route not given, IR by group order of Table 2)
# [7] = 10 mpk, FIG. 4c, animal with approximate mean summed score for the group
compound,measurement,setting,value
CC(C)(C)NCC(O)COc1cccc2c1CC(O)C(O)C2 (centres unmarked) [nadolol],colon inflammation,"[1]; IR 6 mpk, FIG. 12i","mild (2.0=Mild multifocal infiltrates affecting mucosa, submucosa, outer muscle layers and serosa, affects 11-25% of the total colon)"
same,colon necrosis,"[1]; IR 6 mpk, FIG. 12i",no
same,colon inflammation,"[1]; IR 19 mpk, FIG. 12j","moderate (3.0=Moderate multifocal infiltrates affecting mucosa, submucosa, outer muscle layers and serosa, affects 26-50% of the total colon)"
same,colon necrosis,"[1]; IR 19 mpk, FIG. 12j","mild (2.0=Mild, focal or multifocal, affects 11-25% of the total colon)"
same,colon inflammation,"[1]; IR 60 mpk, FIG. 12k","severe (5.0=Severe multifocal to diffuse infiltrates affecting mucosa, submucosa, outer muscle layers and serosa, affects >75% of the total colon)"
same,colon necrosis,"[1]; IR 60 mpk, FIG. 12k",severe (5.0=Severe affects >75% of the total colon)
same,colon inflammation,"[1]; PO 6 mpk, FIG. 12d","mild (2.0=Mild multifocal infiltrates affecting mucosa, submucosa, outer muscle layers and serosa, affects 11-25% of the total colon)"
same,colon necrosis,"[1]; PO 6 mpk, FIG. 12d",severe (5.0=Severe affects >75% of the total colon)
same,colon inflammation,"[1]; PO 19 mpk, FIG. 12e","marked (4.0=Marked multifocal to diffuse infiltrates affecting mucosa, submucosa, outer muscle layers and serosa, affects 51-75% of the total colon)"
same,colon necrosis,"[1]; PO 19 mpk, FIG. 12e","marked (4.0=Marked focal or multifocal, affects 51-75% of the total colon)"
same,colon inflammation,"[1]; PO 60 mpk, FIG. 12f","severe (5.0=Severe multifocal to diffuse infiltrates affecting mucosa, submucosa, outer muscle layers and serosa, affects >75% of the total colon)"
same,colon necrosis,"[1]; PO 60 mpk, FIG. 12f",severe (5.0=Severe affects >75% of the total colon)
same,colon inflammation,"[1]; PO 120 mpk, FIG. 12g","mild (2.0=Mild multifocal infiltrates affecting mucosa, submucosa, outer muscle layers and serosa, affects 11-25% of the total colon)"
same,colon necrosis,"[1]; PO 120 mpk, FIG. 12g",no
same,colon inflammation,[2]; [3],"moderate (3.0=Moderate multifocal infiltrates affecting mucosa, submucosa, outer muscle layers and serosa, affects 26-50% of the total colon)"
same,colon necrosis,[2]; [3],"moderate (3.0=Moderate focal or multifocal, affects 26-50% of the total colon)"
same,colon inflammation,[2]; [4],"moderate (3.0=Moderate multifocal infiltrates affecting mucosa, submucosa, outer muscle layers and serosa, affects 26-50% of the total colon)"
same,colon necrosis,[2]; [4],"moderate (3.0=Moderate focal or multifocal, affects 26-50% of the total colon)"
same,colon inflammation,[2]; [5],"moderate (3.0=Moderate multifocal infiltrates affecting mucosa, submucosa, outer muscle layers and serosa, affects 26-50% of the total colon)"
same,colon necrosis,[2]; [5],"mild (2.0=Mild, focal or multifocal, affects 11-25% of the total colon)"
same,colon inflammation,[2]; [6],"mild (2.0=Mild multifocal infiltrates affecting mucosa, submucosa, outer muscle layers and serosa, affects 11-25% of the total colon)"
same,colon necrosis,[2]; [6],"mild (2.0=Mild, focal or multifocal, affects 11-25% of the total colon)"
C[C@]12C=CC(=O)C=C1CC[C@@H]1[C@@H]2[C@@H](O)C[C@@]2(C)[C@H]1CC[C@]2(O)C(=O)CO [prednisolone],colon inflammation,"[1]; PO 10 mpk, FIG. 12c","minimal (1.0=Minimal multifocal infiltrates in mucosa only, affects 2-10% of the total colon)"
same,colon necrosis,"[1]; PO 10 mpk, FIG. 12c","minimal (1.0=Minimal focal or multifocal, affects 2-10% of the total colon)"
same,colon inflammation,[2]; [7],"minimal (1.0=Minimal multifocal infiltrates in mucosa only, affects 2-10% of the total colon)"
same,colon necrosis,[2]; [7],"very minimal (0.5=Very minimal, focal, affects <2% of the total colon)"
